From patent US20260364184A1, “COMPOUND BASED ON OXOISOINDOLINYL-SUBSTITUTED TETRAHYDROPYRIMIDINE-DIONE AND USE THEREOF” (GLUETACS THERAPEUTICS (SHANGHAI) CO., LTD., priority 2023, published 2026)

What was measured:
Assay type in all cases: cell-based
AR = target: T1, AR (Homo sapiens, UniProt P10275); experiment: Western blot degradation of AR; conditions: LnCap Cell; 24 hours
T1 construct: expression of target proteins in cells; endogenous in cells
T1 sequence (P10275 1-920): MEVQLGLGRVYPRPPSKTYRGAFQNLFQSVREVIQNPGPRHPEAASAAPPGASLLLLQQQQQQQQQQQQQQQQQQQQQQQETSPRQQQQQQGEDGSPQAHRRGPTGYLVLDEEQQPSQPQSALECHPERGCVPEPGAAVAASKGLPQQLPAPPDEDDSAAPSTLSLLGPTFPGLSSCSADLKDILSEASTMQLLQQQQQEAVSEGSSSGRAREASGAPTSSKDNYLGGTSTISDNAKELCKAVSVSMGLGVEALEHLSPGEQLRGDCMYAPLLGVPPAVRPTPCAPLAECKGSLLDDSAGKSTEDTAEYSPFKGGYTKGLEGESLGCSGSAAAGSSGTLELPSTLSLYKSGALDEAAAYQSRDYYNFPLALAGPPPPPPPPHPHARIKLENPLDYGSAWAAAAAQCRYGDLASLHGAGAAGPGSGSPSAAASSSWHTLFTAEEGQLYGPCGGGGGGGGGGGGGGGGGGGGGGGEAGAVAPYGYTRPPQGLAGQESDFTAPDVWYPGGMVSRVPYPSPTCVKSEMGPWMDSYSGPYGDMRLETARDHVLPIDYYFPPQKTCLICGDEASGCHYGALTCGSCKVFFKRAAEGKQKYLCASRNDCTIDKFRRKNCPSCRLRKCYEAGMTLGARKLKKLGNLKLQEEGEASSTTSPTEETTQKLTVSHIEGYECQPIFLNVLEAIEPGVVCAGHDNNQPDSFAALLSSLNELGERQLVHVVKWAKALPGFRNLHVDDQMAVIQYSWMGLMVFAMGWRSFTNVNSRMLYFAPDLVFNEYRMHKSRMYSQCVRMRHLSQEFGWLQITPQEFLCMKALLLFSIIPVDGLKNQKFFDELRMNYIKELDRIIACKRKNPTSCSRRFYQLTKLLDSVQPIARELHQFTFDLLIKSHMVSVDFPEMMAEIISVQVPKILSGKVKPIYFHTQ
Description: Conventional Western blot assay was performed to evaluate the effects of the compounds of the present disclosure on the expression of target proteins in cells.
(1) Cell Seeding and Protein Harvesting: The selected cells were processed according to the cell seeding procedure and protein harvesting procedure in Table II-2.
(2) To the collected supernatant, 5×SDS sample loading buffer was added, followed by denaturation at 95 °C for 5 minutes. The denatured samples were then separated by SDS-PAGE electrophoresis on a polyacrylamide gel. Proteins were transferred to a nitrocellulose membrane (0.45 μm NC membrane), blocked with blocking buffer at room temperature for 1 hour, and subjected to antibody incubation and development procedures according to the antibody manufacturer's instructions (Cell Signaling Technology).
Half-Maximal Degradation Concentration value (the drug concentration required for degrading proteins by 50%, abbreviated as DC50) reads method: comparing the grayscale values of Western blot bands from drug-treated samples with those from blank DMSO-treated controls, and identifying the drug concentration range at which the grayscale value is half that of the DMSO-treated control bands.
DC50 values can be calculated using ImageJ software to measure grayscale values of Western blot bands from drug-treated samples. The concentration-response curve is fitted to estimate the drug concentration corresponding to half the grayscale value.
Target protein remaining (%) refers to the percentage of target protein remaining in cells after treatment with protein degrader compounds.
Calculation method for target protein remaining (%): Use ImageJ software to measure grayscale values of Western blot bands from drug (protein degrader)-treated samples. The grayscale value of drug-treated bands is divided by that of internal control protein bands, and the resulting quotient is normalized to obtain the relative percentage of remaining target protein after protein degrader treatment.
Target protein degradation rate (%)=1−target protein remaining (%).

[1] = tested on: Human T lymphocytic leukemia cell line (Jurkat); experiment: Inhibition of Jurkat cell proliferation (CellTiter luminescent viability); conditions: Homo sapiens, Table IF3, AR inhibitor-based, 96 hours; for inhibition at 0.01 µM: 10 nM, read-out: Inhibition Rate at 10 nM (%); for inhibition at 0.5 µM: 500 nM, read-out: Inhibition Rate at 500 nM (%)
Description: The tumor cells used herein were cultured in a cell culture medium listed in table 3 at 37 °C in an incubator with 5% CO2. Prior to experimentation, all cell lines used were correctly identified by STR profiling, and tested negative for mycoplasma contamination using a mycoplasma detection kit through routine screenings.
The IC50 values of the compounds of the present disclosure (including the compounds in Table 1, Table 2, and Examples 1-468) were determined using the CellTiter-Meiluncell Luminescent Cell Viability Assay Kit from Dalian Meilun Biotech Co., Ltd. The detailed procedure is as follows: Tumor cells were seeded in 96-well cell culture plates at the densities specified in Table 4. On the following day, the test compounds of the present disclosure were subjected to serial dilution. The dilution can be performed according to one of the following two methods: • (1) The first dilution method: The test compounds of the present disclosure (including the compounds in Table 1, Table 2, and Examples 1-468) were subjected to 5-fold serial dilutions starting from a highest concentration of 2000 μM, resulting in a total of 9 concentrations from high to low (2000, 400, 80, 16, 3.2, 0.64, 0.128, 0.0256, 0.00512 μM). Subsequently, 0.5 μL of the test compound dilution was transferred into the 96-well plate containing the cells, with each well containing 100 μL of cell culture medium. […] Into the 96-well plate, the diluted test compounds and corresponding detection reagents were added, resulting in final test compound concentrations of 500 nM and 10 nM, respectively. The experimental procedure is described below using the diluted 2 μM test compound as an example.
0.5 μL of the aforementioned diluted compound of the present disclosure (including the compounds in Table 1, Table 2, and Examples 1-468) was added to the seeded cells in 100 μL of medium, yielding a final test compound concentration of 10 nM. After the cells were treated with the compounds of the present disclosure for a specified period, the cell viability assay reagent was added to the culture medium according to the kit's instructions to determine cell viability. […] All controls were treated using the same procedure as the compounds of the present disclosure. The growth inhibition curves for the compounds of the present disclosure were plotted using Prism GraphPad software, and the IC50 values were calculated therefrom.

[2] = tested on: Human diffuse large B-cell lymphoma cell line (TMD8); experiment: Inhibition of TMD8 cell proliferation (CellTiter luminescent viability); conditions: Table IF1, AR inhibitor-based; for inhibition at 0.01 µM / inhibition at 0.5 µM: Homo sapiens, TMD8, 96 h; for inhibition at 0.01 µM: read-out: Inhibition Rate at 10 nM (%); for inhibition at 0.5 µM: TMD8, 500 nM, read-out: Inhibition Rate at 500 nM (%)
[3] = tested on: Human acute lymphocytic leukemia T lymphocytes cell line (CCRF-CEM); experiment: Inhibition of CCRF-CEM cell proliferation (CellTiter luminescent viability); conditions: Table IF2, AR inhibitor-based; for inhibition at 0.01 µM / inhibition at 0.5 µM: Homo sapiens, 96 h; for inhibition at 0.01 µM: read-out: Inhibition Rate at 10 nM (%); for inhibition at 0.5 µM: 500 nM, read-out: Inhibition Rate at 500 nM (%)

Compound | Degradation of substrate protein AR (substrate protein remaining %) (AR) | inhibition at 0.01 µM [1] [%] | inhibition at 0.5 µM [1] [%] | inhibition at 0.01 µM ([2]; TMD8, 10 nM) [%] | inhibition at 0.5 µM [2] [%] | inhibition at 0.01 µM ([3]; 10 nM) [%] | inhibition at 0.5 µM [3] [%] | Inhibition Rate at 10 nM (%) ([2]; TMD8, 10 nM, 96 hours, 0.01 µM) | Inhibition Rate at 10 nM (%) ([3]; 10 nM, 96 hours, 0.01 µM)
CC1(C)[C@H](NC(=O)c2ccc(N3CCC(CN4C5CC4CN(c4ccc6c(c4)C(=O)N(N4CCC(=O)NC4=O)C6=O)C5)CC3)nc2)C(C)(C)[C@H]1Oc1ccc(C#N)c(Cl)c1 [GT-05823, N-((1r,3r)-3-(3-chloro-4-cyanophenoxy)-2,2,4,4-tetramethylcyclobutyl)-6-(4-((3-(2-(2,4-dioxotetrahydropyrimidin-1(2H)-yl)-1,3-dioxoisoindolin-5-yl)-3,6-diazabicyclo[3.1.1]heptan-6-yl)methyl)piperidin-1-yl)nicotinamide] | A (0%≤substrate protein remaining %≤80%) | 5 to 10 | 20 to 30 | 10 to 15 | 35 to 40 | 5 to 10 | 20 to 30 | – | –
CC1(C)[C@H](NC(=O)c2ccc(N3CCC(CN4C5CCC4CN(c4ccc6c(c4)C(=O)N(N4CCC(=O)NC4=O)C6=O)C5)CC3)nc2)C(C)(C)[C@H]1Oc1ccc(C#N)c(Cl)c1 [GT-05826, N-((1r,3r)-3-(3-chloro-4-cyanophenoxy)-2,2,4,4-tetramethylcyclobutyl)-6-(4-((3-(2-(2,4-dioxotetrahydropyrimidin-1(2H)-yl)-1,3-dioxoisoindolin-5-yl)-3,8-diazabicyclo[3.2.1]octan-8-yl)methyl)piperidin-1-yl)nicotinamide] | A (0%≤substrate protein remaining %≤80%) | 20 to 30 | 40 to 60 | 25 to 30 | 40 to 60 | 20 to 30 | 40 to 60 | – | –
CC1(C)[C@H](NC(=O)c2ccc(N3CCC(CN4CCN(c5ccc6c(c5)C(=O)N(N5CCC(=O)NC5=O)C6=O)CC4)CC3)nc2)C(C)(C)[C@H]1Oc1ccc(C#N)c(Cl)c1 [GT-05301, N-((1r,3r)-3-(3-chloro-4-cyanophenoxy)-2,2,4,4-tetramethylcyclobutyl)-6-(4-((4-(2-(2,4-dioxotetrahydropyrimidin-1(2H)-yl)-1,3-dioxoisoindolin-5-yl)piperazin-1-yl)methyl)piperidin-1-yl)nicotinamide] | A (0%≤substrate protein remaining %≤80%) | 10 to 15 | 20 to 30 | – | 40 to 60 | – | 30 to 40 | IFa6 (25% ≤ IFa6 < 30%) | IFb5 (15% ≤ IFb5 < 20%)
CC1(C)[C@H](NC(=O)c2ccc(N3CCC(CN4CC5CCC(C4)N5c4ccc5c(c4)C(=O)N(N4CCC(=O)NC4=O)C5=O)CC3)nc2)C(C)(C)[C@H]1Oc1ccc(C#N)c(Cl)c1 [GT-05305, N-((1r,3r)-3-(3-chloro-4-cyanophenoxy)-2,2,4,4-tetramethylcyclobutyl)-6-(4-((8-(2-(2,4-dioxotetrahydropyrimidin-1(2H)-yl)-1,3-dioxoisoindolin-5-yl)-3,8-diazabicyclo[3.2.1]octan-3-yl)methyl)piperidin-1-yl)nicotinamide] | A (0%≤substrate protein remaining %≤80%) | 10 to 15 | 40 to 60 | 25 to 30 | 40 to 60 | 20 to 30 | 40 to 60 | – | –
N#Cc1ccc(O[C@H]2CC[C@H](NC(=O)c3ccc(N4CCC(CN5C6CC5CN(c5ccc7c(c5)C(=O)N(N5CCC(=O)NC5=O)C7=O)C6)CC4)nn3)CC2)cc1Cl [GT-05821, N-((1r,4r)-4-(3-chloro-4-cyanophenoxy)cyclohexyl)-6-(4-((3-(2-(2,4-dioxotetrahydropyrimidin-1(2H)-yl)-1,3-dioxoisoindolin-5-yl)-3,6-diazabicyclo[3.1.1]heptan-6-yl)methyl)piperidin-1-yl)pyridazine-3-carboxamide] | A (0%≤substrate protein remaining %≤80%) | 10 to 15 | 20 to 30 | 15 to 20 | 40 to 60 | 15 to 20 | 30 to 40 | – | –
N#Cc1ccc(O[C@H]2CC[C@H](NC(=O)c3ccc(N4CCC(CN5C6CCC5CN(c5ccc7c(c5)C(=O)N(N5CCC(=O)NC5=O)C7=O)C6)CC4)nn3)CC2)cc1Cl [GT-05824, N-((1r,4r)-4-(3-chloro-4-cyanophenoxy)cyclohexyl)-6-(4-((3-(2-(2,4-dioxotetrahydropyrimidin-1(2H)-yl)-1,3-dioxoisoindolin-5-yl)-3,8-diazabicyclo[3.2.1]octan-8-yl)methyl)piperidin-1-yl)pyridazine-3-carboxamide] | A (0%≤substrate protein remaining %≤80%) | 5 to 10 | 30 to 40 | 15 to 20 | 40 to 60 | 10 to 15 | 30 to 40 | – | –
